Source: patent US12543737B2, “Herbicidal composition and method for controlling weeds” (SUMITOMO CHEMICAL COMPANY, LIMITED, priority 2020, dated 2026)

Tests used:
[1] = tested on: waterhemp (Amaranthus tuberculatus=Amaranthus rudis=Amaranthus tamariscinus) having the substitution of an amino acid residue of G210Δ in PPX2; experiment: Herbicidal effect, foliar spray pot test in greenhouse (Example 9); type: in vivo; conditions: spray volume 216 L/ha, 28 days after spraying, rating 0 to 100
[2] = tested on: waterhemp (Amaranthus tuberculatus=Amaranthus rudis=Amaranthus tamariscinus) having the substitution of an amino acid residue of G210Δ in PPX2; experiment: Herbicidal effect, foliar spray pot test in greenhouse (Example 10); type: in vivo; conditions: 216 L/ha, 28 days after spraying, rating 0 to 100
[3] = glufosinate-ammonium 350 g/ha alone

Question: For `CCOC(=O)COc1ncccc1Oc1cc(-n2c(=O)cc(C(F)(F)F)n(C)c2=O)c(F)cc1Cl` [compound X, epyrifenacil], which Herbicidal effect ([1]; compound X 0.5 g/ha alone) is on record?
Answer: Its Herbicidal effect is 17.

Question: What about the Herbicidal effect ([1]; compound X 1 g/ha alone) of the same compound?
Answer: Its Herbicidal effect is 18.

Question: What does the source list for `CP(=O)(O)CCC(N)C(=O)O` (centres unmarked) [glufosinate-ammonium]?
Answer: Herbicidal effect [1, 3]: 37; Herbicidal effect [2, 3]: 37

Question: For `C#CCN1C(=O)C(F)(F)Oc2cc(F)c(-n3c(=O)n(C)c(=S)n(C)c3=O)cc21` [trifludimoxazin], which Herbicidal effect ([2]; trifludimoxazin 0.5 g/ha alone) is on record?
Answer: Its Herbicidal effect is 10.
